Measurements: patent US9708312B2, “Dihydropyrimidinoisoquinolinones and pharmaceutical compositions thereof for the treatment of inflammatory disorders (GPR84 antagonists)” (GALAPAGOS NV, priority 2012, dated 2017)

Each compound was assayed on human neutrophils (assay: Human neutrophil migration assay (embelin-induced chemotaxis)). Conditions: not given.
Type: cell-based
Experimental: 2.1. Human Neutrophil Migration Assay
The effect of agonists or antagonists for GPR84 can therefore be assayed in a neutrophil migration test. In the neutrophil migration assay, neutrophils, freshly isolated from buffy coats from human volunteers, are treated with a compound for 30 min Subsequently, the neutrophils are transferred to the upper wells of a Corning HTS transwell 96 permeable support system, of which the lower wells are filled with a embelin solution at EC80 (concentration which gives 80% of the activity of GPR84). After 1 h of incubation, migration of the neutrophils towards embelin in the lower compartment can be quantified by measuring the ATP-content of the lower wells using the ATPlite luminescence ATP detection assay system (Perkin Elmer, Cat. No.: 436110).
2.1.1 Isolation of Neutrophils from Human Buffy Coat
A human buffy coat is diluted with an equal volume of ice cold DPBS. 20 mL of the diluted buffy coat is gently mixed with 4 mL of ACD buffer (140 mM citric acid, 200 mM sodium citrate and 220 mM dextrose). Then, 12 mL of the 6% dextran/0.9% NaCl solution (15 g dextran T2000 and 2.25 g NaCl dissolved in 250 mL H2O) is added to the mixture and the samples are inverted gently up to 20 times. The total volume was transferred to a new recipient and incubated at room temperature for 1 h for complete separation of the two phases to occur. The yellowish supernatant is then transferred to a clean centrifugation tube and centrifuged for 12 min at 1300 rpm and 4° C. After centrifugation, the supernatant is discarded and the remaining cell pellet is rapidly resuspended in 12 mL of ice-cold H2O for red blood cell lysis to occur. After 20 seconds, 4 mL of ice-cold 0.6 M KCl is added. Samples are mixed carefully and centrifuged for 6 min at 1300 rpm, 4° C. The supernatant is discarded and the red blood cell lysis procedure is repeated one more time. Subsequently, the cell pellet is resuspended in 4 mL of DPBS and layered over 5 mL of Lymphoprep (Nycomed Pharma, Cat. No.: 1114545) in a 15 mL centrifuge tube. After centrifugation for 12 min at 1300 rpm, 4° C., the supernatant is removed and the cell pellet, containing the neutrophils, is resuspended in 25 mL chemotaxis buffer (RPMI 1640 medium, supplemented with 10 mM HEPES; freshly made for each experiment)
A cell suspension of 8.9×10^6 cells per milliliter is prepared. 20 μL of compound solution in chemotaxis buffer is added to 180 μL cell suspension. The mixture is incubated at 37° C. for 30 min with intermediate resuspension of the cells after 15 min Following this, 70 μL cell suspension is transferred to the upper compartment of a Corning HTS transwell 96 permeable support system with 5.0 μm pore size polycarbonate membrane (Corning, Cat. No.: 3387). The receiver well of the transwell system is then filled with 200 μL chemotaxis buffer containing compound and chemotactic agent (embelin). After incubation at 37° C. in 5% CO2 for 1 h, the upper plate of the transwell system is removed and the cell suspension in the receiver plate is transferred to a 96-well V-bottom plate. 50 μL of DPBS is added to the receiver plate to prevent remaining cells from drying out. The V-bottom plate is centrifuged for 6 min at 1500 rpm. The supernatant is removed and the cells are resuspended in 50 μL DPBS. The cells are then transferred back to the receiver plate of the transwell system. After this, 100 μL ATPlite solution (Perkin Elmer, Cat. No: 436110) was added to the cells. The plate is incubated for 10 min in the dark, while shaking. […] of cell lysate is then transferred to a white 96-well plate and luminescence is measured. The detected luminescent signal is considered as linearely related to the number of cells having migrated from the upper well to the receiver well.

| Compound | neutrophil chemotaxis induced by GPR84 agonists |
| --- | --- |
| c1ccc2c(Cc3c[nH]c4ccccc34)c[nH]c2c1 [3,3′ di indolylmethane, reference compound] | induce neutrophil chemotaxis |
| CCCCCCCCCC(=O)[O-].[Na+] [sodiumdecanoate, reference compound] | induce neutrophil chemotaxis |

Same assay, conditions: Neutrophil; neutrophils from human buffy coats; embelin at EC80

| Compound | IC50 |
| --- | --- |
| O=c1nc(OCC2CCCO2)cc2n1CCc1cc(OCCOc3ccccc3)ccc1-2 (stereo not drawn) [compound 15, 9-(2-phenoxy-ethoxy)-2-(tetrahydro-furan-2-ylmethoxy)-6,7-dihydro-pyrimido[6,1-a]isoquinolin-4-one] | 0.01 to 100 nM |
| O=c1nc(OCC2CCCO2)cc2n1CCc1cc(OCC3COc4ccccc4O3)ccc1-2 (stereo not drawn) [compound 18, 9-(2,3-dihydro-benzo[1,4]dioxin-2-ylmethoxy)-2-(tetrahydro-furan-2-ylmethoxy)-6,7-dihydro-pyrimido[6,1-a]isoquinolin-4-one] | 0.01 to 100 nM |
| O=c1nc(OCC2CCCO2)cc2n1CCc1cc(OCc3cccc([N+](=O)[O-])c3)ccc1-2 (stereo not drawn) [compound 32, 9-(3-nitro-benzyloxy)-2-(tetrahydro-furan-2-ylmethoxy)-6,7-dihydro-pyrimido[6,1-a]isoquinolin-4-one] | 0.01 to 100 nM |
| O=c1nc(OCC2CCCO2)cc2n1CCc1cc(OCc3cccc(-c4cncnc4)n3)ccc1-2 (stereo not drawn) [compound 57, 9-(6-pyrimidin-5-yl-pyridin-2-ylmethoxy)-2-(tetrahydro-furan-2-ylmethoxy)-6,7-dihydro-pyrimido[6,1-a]isoquinolin-4-one] | 100 to 500 nM |
| O=C(COc1ccc2c(c1)CCn1c-2cc(OCC2COc3ccccc3O2)nc1=O)N1CCCC1 (stereo not drawn) [compound 74, 2-(2,3-dihydro-benzo[1,4]dioxin-2-ylmethoxy)-9-(2-oxo-2-pyrrolidin-1-yl-ethoxy)-6,7-dihydro-pyrimido[6,1-a]isoquinolin-4-one] | 0.01 to 100 nM |
| O=c1nc(OCC2COc3ccccc3O2)cc2n1CCc1cc(OCc3nnn[nH]3)ccc1-2 (stereo not drawn) [compound 76, 2-(2,3-dihydro-benzo[1,4]dioxin-2-ylmethoxy)-9-(1H-tetrazol-5-ylmethoxy)-6,7-dihydro-pyrimido[6,1-a]isoquinolin-4-one] | 0.01 to 100 nM |
| O=c1nc(OCC2COc3ncccc3O2)cc2n1CCc1cc(OCc3ncco3)ccc1-2 (stereo not drawn) [compound 86, 2-(2,3-dihydro-[1,4]dioxino[2,3-b]pyridin-2-ylmethoxy)-9-(oxazol-2-ylmethoxy)-6,7-dihydro-pyrimido[6,1-a]isoquinolin-4-one] | 0.01 to 100 nM |
| N#CCOc1ccc2c(c1)CCn1c-2cc(OCC2COc3ncccc3O2)nc1=O (stereo not drawn) [compound 89, [2-(2,3-dihydro-[1,4]dioxino[2,3-b]pyridin-2-ylmethoxy)-4-oxo-6,7-dihydro-4H-pyrimido[6,1-a]isoquinolin-9-yloxy]-acetonitrile] | 0.01 to 100 nM |
| O=c1nc(OCC2COc3ncccc3O2)cc2n1CCc1cc(OCc3ccccn3)ccc1-2 (stereo not drawn) [compound 91, 2-(2,3-dihydro-[1,4]dioxino[2,3-b]pyridin-2-ylmethoxy)-9-(pyridin-2-ylmethoxy)-6,7-dihydro-pyrimido[6,1-a]isoquinolin-4-one] | 0.01 to 100 nM |
| O=c1nc(OCC2COc3ncccc3O2)cc2n1CCc1cc(OCc3nnn[nH]3)ccc1-2 (stereo not drawn) [compound 93, 2-(2,3-dihydro-[1,4]dioxino[2,3-b]pyridin-2-ylmethoxy)-9-(1H-tetrazol-5-ylmethoxy)-6,7-dihydro-pyrimido[6,1-a]isoquinolin-4-one] | 100 to 500 nM |
| CC(C)(O)C#Cc1ccc2c(c1)CCn1c-2cc(OCC2COc3ncccc3O2)nc1=O (stereo not drawn) [compound 136, 2-(2,3-dihydro-[1,4]dioxino[2,3-b]pyridin-2-ylmethoxy)-9-(3-hydroxy-3-methyl-but-1-ynyl)-6,7-dihydro-pyrimido[6,1-a]isoquinolin-4-one] | 0.01 to 100 nM |
| O=c1nc(OCC2COc3ncccc3O2)cc2n1CCc1cc(-c3cn[nH]c3)ccc1-2 (stereo not drawn) [compound 180, 2-(2,3-dihydro-[1,4]dioxino[2,3-b]pyridin-2-ylmethoxy)-9-(1H-pyrazol-4-yl)-6,7-dihydro-pyrimido[6,1-a]isoquinolin-4-one] | 0.01 to 100 nM |
| CC(O)C#Cc1ccc2c(c1)CCn1c-2cc(OCC2COc3ncccc3O2)nc1=O (stereo not drawn) [compound 181, 2-(2,3-dihydro-[1,4]dioxino[2,3-b]pyridin-2-ylmethoxy)-9-(3-hydroxy-but-1-ynyl)-6,7-dihydro-pyrimido[6,1-a]isoquinolin-4-one] | 0.01 to 100 nM |
| CCC(O)C#Cc1ccc2c(c1)CCn1c-2cc(OCC2COc3ncccc3O2)nc1=O (stereo not drawn) [compound 182, 2-(2,3-dihydro-[1,4]dioxino[2,3-b]pyridin-2-ylmethoxy)-9-(3-hydroxy-pent-1-ynyl)-6,7-dihydro-pyrimido[6,1-a]isoquinolin-4-one] | 0.01 to 100 nM |
| CCCC(O)C#Cc1ccc2c(c1)CCn1c-2cc(OCC2COc3ncccc3O2)nc1=O (stereo not drawn) [compound 183, 2-(2,3-dihydro-[1,4]dioxino[2,3-b]pyridin-2-ylmethoxy)-9-(3-hydroxy-hex-1-ynyl)-6,7-dihydro-pyrimido[6,1-a]isoquinolin-4-one] | 0.01 to 100 nM |
| CC(C)C(O)C#Cc1ccc2c(c1)CCn1c-2cc(OCC2COc3ncccc3O2)nc1=O (stereo not drawn) [compound 188, 2-(2,3-dihydro-[1,4]dioxino[2,3-b]pyridin-2-ylmethoxy)-9-(3-hydroxy-4-methyl-pent-1-ynyl)-6,7-dihydro-pyrimido[6,1-a]isoquinolin-4-one] | 0.01 to 100 nM |
| O=c1nc(OC[C@H]2COc3ncccc3O2)cc2n1CCc1cc(OCc3ncco3)ccc1-2 [compound 189] | 0.01 to 100 nM |
| O=c1nc(OC[C@@H]2COc3ncccc3O2)cc2n1CCc1cc(OCc3ncco3)ccc1-2 [compound 190] | 0.01 to 100 nM |
| O=c1nc(OCC2COc3ncccc3O2)cc2n1CCc1cc(COCCN3CCOCC3)ccc1-2 (stereo not drawn) [compound 192, 2-(2,3-dihydro-[1,4]dioxino[2,3-b]pyridin-2-ylmethoxy)-9-(2-morpholin-4-yl-ethoxymethyl)-6,7-dihydro-pyrimido[6,1-a]isoquinolin-4-one] | 0.01 to 100 nM |
| O=c1nc(OCC2COc3ncccc3O2)cc2n1CCc1cc(C#CCNCc3ccccc3)ccc1-2 (stereo not drawn) [compound 193, 9-(3-benzylamino-prop-1-ynyl)-2-(2,3-dihydro-[1,4]dioxino[2,3-b]pyridin-2-ylmethoxy)-6,7-dihydro-pyrimido[6,1-a]isoquinolin-4-one] | 0.01 to 100 nM |
| O=c1nc(OCC2COc3ncccc3O2)cc2n1CCc1cc(CN3CCCCC3)ccc1-2 (stereo not drawn) [compound 199, 2-(2,3-dihydro-[1,4]dioxino[2,3-b]pyridin-2-ylmethoxy)-9-piperidin-1-ylmethyl-6,7-dihydro-pyrimido[6,1-a]isoquinolin-4-one] | 0.01 to 100 nM |
| CC1(COCc2ccc3c(c2)CCn2c-3cc(OCC3COc4ncccc4O3)nc2=O)COC1 (stereo not drawn) [compound 200, 2-(2,3-dihydro-[1,4]dioxino[2,3-b]pyridin-2-ylmethoxy)-9-(3-methyl-oxetan-3-ylmethoxymethyl)-6,7-dihydro-pyrimido[6,1-a]isoquinolin-4-one] | 0.01 to 100 nM |
| O=c1nc(OCC2COc3ncccc3O2)cc2n1CCc1cc(COC3COC3)ccc1-2 (stereo not drawn) [compound 202, 2-(2,3-dihydro-[1,4]dioxino[2,3-b]pyridin-2-ylmethoxy)-9-(oxetan-3-yloxymethyl)-6,7-dihydro-pyrimido[6,1-a]isoquinolin-4-one] | 0.01 to 100 nM |

Each compound was assayed against T1, GPR84 (Homo sapiens, UniProt Q9NQS5) (assay: GPR84 [35S]GTPγS binding assay, HEPES buffer). Conditions: 3,3′ di indolylmethane at EC80, membranes from stable cell line over expressing GPR84.
T1 construct: expressed in transfected cells
Type: biochemical
Outline: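 Membranes from a stable GPR84-overexpressing cell line (20 μg/well), pre-incubated with 0.1 μM GDP for 15 min at 4° C, mixed with 0.1 nM [35S]GTPγS and WGA SpA beads in 20 mM HEPES pH 7.4, 5 mM MgCl2, 250 mM NaCl, 0.05% BSA, 75 ug/mL saponin. Incubated 90 min at room temperature; scintillation proximity read after centrifugation.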

T1 sequence (Q9NQS5 whole entry): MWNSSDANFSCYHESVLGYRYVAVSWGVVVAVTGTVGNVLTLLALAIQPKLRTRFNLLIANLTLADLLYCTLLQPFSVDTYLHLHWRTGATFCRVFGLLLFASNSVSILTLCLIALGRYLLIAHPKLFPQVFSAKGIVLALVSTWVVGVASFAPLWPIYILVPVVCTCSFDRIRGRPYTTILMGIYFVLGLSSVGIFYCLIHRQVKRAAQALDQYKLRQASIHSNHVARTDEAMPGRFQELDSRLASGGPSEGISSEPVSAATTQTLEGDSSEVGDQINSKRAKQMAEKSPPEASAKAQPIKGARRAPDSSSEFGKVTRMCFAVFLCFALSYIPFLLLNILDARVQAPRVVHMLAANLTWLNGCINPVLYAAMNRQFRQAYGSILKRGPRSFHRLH

| Compound | IC50 |
| --- | --- |
| O=C(COc1ccc2c(c1)CCn1c-2cc(OCC2COc3ccccc3O2)nc1=O)N1CCCC1 (stereo not drawn) [compound 74, 2-(2,3-dihydro-benzo[1,4]dioxin-2-ylmethoxy)-9-(2-oxo-2-pyrrolidin-1-yl-ethoxy)-6,7-dihydro-pyrimido[6,1-a]isoquinolin-4-one] | 100 to 500 nM |
| O=c1nc(OC[C@@H]2COc3ncccc3O2)cc2n1CCc1cc(OCc3ncco3)ccc1-2 [compound 190] | 100 to 500 nM |
